Measurements published in ChEMBL document CHEMBL4842380, “Enhanced Properties of a Benzimidazole Benzylpyrazole Lysine Demethylase Inhibitor: Mechanism-of-Action, Binding Site Analysis, and Activity in Cellular Models of Prostate Cancer” (J Med Chem, 2021).
The source made the active and inactive calls. The rule behind the calls is not given here.

Key:
[1] = molecular target: T1, Lysine-specific demethylase 4E (Homo sapiens, UniProt B2RXH2); test: Inhibition of N-terminal His6-tagged KDM4E (1 to 337 residues) (unknown origin) expressed in Escherichia coli BL21 (DE3)-R3 preincubated for 10 mins followed by substrate addition by fluorescence based FDH-coupled assay
T1 sequence (B2RXH2 whole entry): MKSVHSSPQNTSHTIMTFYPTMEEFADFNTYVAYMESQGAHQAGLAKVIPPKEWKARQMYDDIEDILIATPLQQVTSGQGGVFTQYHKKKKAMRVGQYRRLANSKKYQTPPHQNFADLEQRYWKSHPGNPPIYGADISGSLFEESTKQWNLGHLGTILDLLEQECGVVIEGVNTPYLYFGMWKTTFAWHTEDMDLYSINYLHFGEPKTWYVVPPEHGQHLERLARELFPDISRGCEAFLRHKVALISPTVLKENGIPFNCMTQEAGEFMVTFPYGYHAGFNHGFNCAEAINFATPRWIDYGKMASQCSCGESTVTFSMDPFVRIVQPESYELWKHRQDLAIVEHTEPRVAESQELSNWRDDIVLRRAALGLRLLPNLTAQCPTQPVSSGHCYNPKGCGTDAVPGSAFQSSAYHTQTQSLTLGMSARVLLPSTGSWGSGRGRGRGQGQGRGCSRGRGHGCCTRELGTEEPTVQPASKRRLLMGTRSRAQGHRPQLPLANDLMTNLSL

LNCaP [2] = test: Inhibition of KDM4 in human LNCaP cells assessed as decrease in PSA gene expression at 100 uM incubated for 48 hrs by qPCR analysis; format: cell-based
LNCaP [3] = test: Inhibition of KDM4 in human LNCaP cells assessed as decrease in luciferase activity at 50 uM incubated for 48 hrs by luciferase based reporter gene assay; format: cell-based
DU-145 = test: Inhibition of KDM4 in human DU-145 cells assessed as increase in H3K9me3 level at 25 uM incubated for 48 hrs by Nu-ELISA; format: cell-based
LNCaP [4] = test: Inhibition of KDM4 in human LNCaP cells assessed as increase in H3K9me3 level at 25 uM incubated for 48 hrs by Nu-ELISA; format: cell-based
[5] = Cytotoxicity against human LnCaP cells assessed as remaining cell viability after 48 hrs by alamar blue assay; format: functional, Prostate cell
LNCaP [6] = test: Cytotoxicity against human LnCaP cells assessed as growth inhibition after 48 hrs by alamar blue assay; format: functional
[7] = molecular target: T2, Lysine-specific demethylase 4E (Homo sapiens) (UniProt B2RXH2); test: Inhibition of N-terminal His6-tagged KDM4E (1 to 337 residues) (unknown origin) expressed in Escherichia coli BL21 (DE3)-R3 at highest concentration preincubated for 10 mins followed by substrate addition by fluorescence based FDH-coupled assay
T2 sequence (whole entry): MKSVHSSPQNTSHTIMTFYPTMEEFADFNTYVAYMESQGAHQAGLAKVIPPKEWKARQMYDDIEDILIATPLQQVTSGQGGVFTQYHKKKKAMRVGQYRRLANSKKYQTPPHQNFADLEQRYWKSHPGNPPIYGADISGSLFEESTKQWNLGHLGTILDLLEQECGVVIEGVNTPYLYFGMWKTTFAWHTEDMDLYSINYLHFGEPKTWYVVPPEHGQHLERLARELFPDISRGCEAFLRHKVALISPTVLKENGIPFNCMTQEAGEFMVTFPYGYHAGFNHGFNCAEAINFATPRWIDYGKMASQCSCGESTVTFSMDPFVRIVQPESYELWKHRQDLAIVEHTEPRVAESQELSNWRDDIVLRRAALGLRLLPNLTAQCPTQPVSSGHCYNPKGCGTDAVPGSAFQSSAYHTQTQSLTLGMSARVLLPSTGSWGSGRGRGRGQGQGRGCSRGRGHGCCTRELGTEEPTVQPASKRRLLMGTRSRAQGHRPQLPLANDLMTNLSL

SMILES	IC50 [1] [µM]	further results
Cc1nn(-c2nc3ccccc3[nH]2)c(O)c1CCC(=O)N(C)C	16	–
Cc1nn(-c2nc3ccccc3n2C)c(O)c1-c1ccccc1	34	–
Cc1nn(-c2nc3ccccc3[nH]2)c(N)c1-c1ccccc1	160	–
Cc1nn(-c2ccccn2)c(O)c1Cc1ccccc1	57	–
CCCCc1nn(-c2nc3ccccc3[nH]2)c(O)c1-c1ccccc1	6	–
C=CCc1c(C)nn(-c2nc3ccccc3[nH]2)c1O	24	–
CNCCCc1c(C)nn(-c2nc3ccccc3[nH]2)c1O	9	–
C=CCc1c(C)nn(-c2ccccn2)c1O	191	–
CN(C)CCCNC(=O)c1ccc(-c2cc(O)c3ncccc3c2)cc1	–	inhibition (LNCaP [2]): inactive; inhibition (LNCaP [3]): Active; inhibition (DU-145): Active; inhibition (LNCaP [4]): Active; Activity [5]: 1%; GI50 (LNCaP [6]): 53 µM
Cc1nn(-c2nc3ccccc3[nH]2)c(O)c1Cc1ccccc1	27	–
C#CCc1c(C)nn(-c2nc3ccccc3[nH]2)c1O	5	–
Brc1cnn(-c2nc3ccccc3[nH]2)c1	–	inhibition [7]: inactive
Cc1cc(O)n(-c2nc3ccccc3[nH]2)n1	76	–
Cc1nn(-c2nc3ccccc3[nH]2)c(O)c1CCC(=O)O	274	–
COC(=O)CCc1c(C)nn(-c2nc3ccccc3[nH]2)c1O	72	–
